From publication PMC6934184, “Selective DNA-PKcs inhibition extends the therapeutic index of localized radiotherapy and chemotherapy” (The Journal of Clinical Investigation, 2019)

Target: T1, JAK2 JH1 JH2 V617F (Homo sapiens, UniProt O60674, V617F)
T1 construct: JAK2 JH1 JH2 V617F; purchased Thermo Fisher Scientific (Life Technologies) SelectScreen
Test: SelectScreen Z'LYTE
Assay type: biochemical
Summary of the method: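 NU5455 was profiled across the SelectScreen Broad panel of kinase activity and binding assays. Z'LYTE reactions such as CSF1R ran at apparent Km ATP, while the Adapta CAMK1 assay used ATP listed as 10. Values are given as percent.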

T1 sequence (O60674 532-1132 V617F limits assumed): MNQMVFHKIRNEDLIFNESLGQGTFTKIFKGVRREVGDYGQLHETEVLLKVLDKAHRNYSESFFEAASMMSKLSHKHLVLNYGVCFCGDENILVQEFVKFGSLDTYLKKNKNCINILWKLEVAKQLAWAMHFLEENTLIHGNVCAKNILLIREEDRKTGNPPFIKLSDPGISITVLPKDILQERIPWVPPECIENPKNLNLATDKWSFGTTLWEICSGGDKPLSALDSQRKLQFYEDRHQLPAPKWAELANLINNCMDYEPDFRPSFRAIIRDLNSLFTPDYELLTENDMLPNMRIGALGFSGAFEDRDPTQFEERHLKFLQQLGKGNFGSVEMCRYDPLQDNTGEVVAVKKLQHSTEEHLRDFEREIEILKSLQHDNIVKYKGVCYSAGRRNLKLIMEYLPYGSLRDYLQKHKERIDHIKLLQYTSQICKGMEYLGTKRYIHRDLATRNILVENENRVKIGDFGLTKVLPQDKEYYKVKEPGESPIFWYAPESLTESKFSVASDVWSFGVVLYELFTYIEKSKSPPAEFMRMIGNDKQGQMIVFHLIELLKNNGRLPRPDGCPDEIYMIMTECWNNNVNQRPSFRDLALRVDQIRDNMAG

Structure (SMILES): CN(C(=O)CN1CCOCC1)c1ccc2sc3c(-c4cccc5c(=O)cc(N6CC7CCC(C6)O7)oc45)cccc3c2c1 [NU5455]
- inhibition at 1 µM: -13.8%
